Experimental data as given in paper PMC6155308 (Molecules : A Journal of Synthetic Chemistry and Natural …, 2017).

biological target: T1, BpsCAβ (β-carbonic anhydrase) (Burkholderia pseudomallei, UniProt Q63Y17); test: biochemical
T1 construct: gene BPSL0372
T1 sequence (Q63Y17 1-256 limits assumed): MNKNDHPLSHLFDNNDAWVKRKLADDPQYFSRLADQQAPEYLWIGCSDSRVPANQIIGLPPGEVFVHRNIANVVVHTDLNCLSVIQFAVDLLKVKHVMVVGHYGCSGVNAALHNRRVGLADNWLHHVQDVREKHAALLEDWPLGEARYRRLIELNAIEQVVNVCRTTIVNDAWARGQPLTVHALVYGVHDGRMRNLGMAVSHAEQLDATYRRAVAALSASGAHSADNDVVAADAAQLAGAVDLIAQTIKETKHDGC

How did the Ki turn out when `Cn1nc(S(N)(=O)=O)sc1=N` [compound 14, deacetylated derivative of MZA] was run?
The Ki was 2.5 µM.

`Nc1cccc(S(N)(=O)=O)c1` [compound 1, metanilamide] was tested. Which Ki did it give?
Its Ki is over 50 µM.

Which Ki does the source give for `Nc1nnc(S(N)(=O)=O)s1` [compound 13, deacetylated derivative of AAZ] here?
Its Ki is 3.06 µM.

For `NS(=O)(=O)c1cc(Cl)cc(Cl)c1O` [compound 10, 10], which Ki is on record?
The Ki was 4.1 µM.

`CC(=O)N=c1sc(S(N)(=O)=O)nn1C` [MZA, methazolamide] was tested. Which Ki did it give?
Its Ki is 0.186 µM.

Which Ki does the source give for `Nc1ccc(S(N)(=O)=O)cc1Br` [compound 9, 9] here?
The Ki was over 50 µM.

How did the Ki turn out when `CCN[C@H]1CN(CCCOC)S(=O)(=O)c2sc(S(N)(=O)=O)cc21` [BRZ, brinzolamide] was run?
Its Ki is 4.27 µM.

For `NS(=O)(=O)c1cc(Cl)c(Cl)c(S(N)(=O)=O)c1` [DCP, dichlorophenamide], which Ki is on record?
The Ki was 0.529 µM.

With `Cc1ccc(S(N)(=O)=O)cc1` [compound 4, 4] as the compound, how does the Ki read?
Its Ki is over 50 µM.

`Nc1ccc(S(N)(=O)=O)cc1F` [compound 7, 7] was tested. Which Ki did it give?
Its Ki is over 50 µM.

For `NCc1ccc(S(N)(=O)=O)cc1` [compound 5, 5], which Ki is on record?
The Ki was 3.9 µM.

Which Ki does the source give for `NS(=O)(=O)Cc1noc2ccccc12` [ZNS, zonisamide] here?
The Ki was 4.06 µM.

`Nc1ccc(S(N)(=O)=O)cc1` [compound 2, sulfanilamide] was tested. Which Ki did it give?
The Ki was 3.89 µM.

Which Ki does the source give for `Nc1ccc(S(N)(=O)=O)cc1Cl` [compound 8, 8] here?
The Ki was over 50 µM.

How did the Ki turn out when `NS(=O)(=O)c1ccc(S(=O)(=O)Nc2cccc3c(Cl)c[nH]c23)cc1` [IND, indisulam] was run?
The Ki was 4.37 µM.

With `CC1(C)O[C@@H]2[C@@H](CO[C@@]3(COS(N)(=O)=O)OC(C)(C)O[C@@H]23)O1` [TPM, topiramate] as the compound, how does the Ki read?
The Ki was over 50 µM.

How did the Ki turn out when `NS(=O)(=O)c1cccc(S(N)(=O)=O)c1` [compound 3, 3] was run?
Its Ki is 3.17 µM.

Which Ki does the source give for `Cc1ccc(-c2cc(C(F)(F)F)nn2-c2ccc(S(N)(=O)=O)cc2)cc1` [CLX, celecoxib] here?
The Ki was over 50 µM.

`Nc1ccc(S(=O)(=O)Nc2nnc(S(N)(=O)=O)s2)cc1` [compound 20, aminobenzolamide] was tested. Which Ki did it give?
Its Ki is 0.266 µM.
